{"source": "patent US20090074815A1", "about": "“Immunomodulator Compounds as Vaccine Enhancers” (SCICLONE PHARMACEUTICALS, INC., priority 2005, published 2009)", "key": {"[1]": {"system": "IL-10 production by OvA-stimulated splenocytes", "experiment": "OvA-stimulated production of IL-10 by splenocytes of OvA-immunized mice", "conditions": "OvA/FA", "protocol": "The OvA was administered subcutaneously to the crest in a volume of 200 μl. Mice were immunized on day 1 with OvA in complete Freund's adjuvant (CFA; Sigma) and on day 15 with the antigen in incomplete Freund's adjuvant (IFA; Sigma). The immune response was analyzed on day 29. Mice were also immunized with 10 μg/mouse of OvA using Alum as an adjuvant.\nThymuses and spleens from mice of each treatment group were pooled, and then minced with scissors. The minced tissues were suspended in sterile PBS to form cell suspensions, filtered through a double gauze layer and centrifuged. Cells were washed twice with PBS, re-suspended in RPMI-1640 (Sigma) with 2.0 mM of L-glutamine, 50 μM of mercaptoethanol, and 10 μg/ml of gentamycin (complete medium); and cell counts were made. (The splenocyte suspension was washed with a 0.86% solution of NH4Cl to pre-lyse erthrocytes.)\nAssessment of Mitogen- and Antigen-Induced Production of Cytokines: Thymic cells (1×10^6/well) in complete medium with 2% FCS were stimulated with ConA (0, 1, and 2 μg/ml). Splenocytes (1×10^6/well) in complete medium with 5% FCS were stimulated with ConA (0, 1, and 5 μg/ml) and with OvA (0-100 μg/ml). […] Supernatants from OvA-stimulated cultures were collected after 72 hours. Supernatants from both cultures were frozen, and kept at 20° C. Concentrations of IL-2, IL-4, IL-10, IL-12R40 and IFNγ in the supernatants were determined by solid-phase EIA with EIA Expansion Kits, available from BD Biosciences (formerly Pharmingen), in accordance with the manufacturer's instructions."}, "[2]": {"system": "thymic cells", "experiment": "ConA-induced proliferation of thymic cells (3H-thymidine uptake)", "format": "in vivo, mice", "excerpt": "Materials and Methods: Eighteen (18) to twenty (20) gram (g) male mice, purchased from the Rappolovo Animal Facility, Russia, were used in the studies described below. C57BL/6 (B6) mice were used to evaluate the effect of SCV-07 in non-immunized mice. CBAxC57BL/6 (F1) mice were used for studies of the effects of SCV-07 on the antigen-specific immune response. Mice were kept under the standard animal facility conditions and were provided with a standard diet and water ad libitum. Each treatment group included 4-5 mice. […] A suspension containing filling agents alone, which corresponded to the maximum amount of filling agents in the doses of SCV-07 administered to experimental animals, was used a control. […] Assessment of Mitogen- and Antigen-Induced Proliferation: […] Antigen-specific proliferation was studied by stimulating thymocytes and splenoctyes in vitro with different concentrations of OvA for 96 h. Twenty (20) to twenty-four (24) hours prior to completion of incubation, 3H-labeled thymidine (5 μCi/ml) was added to the cells. The cells were then transferred to fiberglass filters with a Titertek® semi-automatic cell harvester. Thymidine uptake was measured using a RackBeta 1217 (Wallac) liquid scintillation β-counter. For quantitative analysis of proliferation, the stimulation index (SI) was calculated as a ratio of the intensity of label inclusion in the stimulated cells to that in non-stimulated cells."}, "[3]": {"conditions": "thymic cells, ConA 1 μg/ml, 0.01 μg/kg Tablet, per os"}, "[4]": {"conditions": "thymic cells, ConA 1 μg/ml, 0.01 μg/kg per os"}, "[5]": {"conditions": "thymic cells, ConA 1 μg/ml, 0.1 μg/kg Tablet, per os"}, "[6]": {"conditions": "thymic cells, ConA 1 μg/ml, 0.1 μg/kg i/p, Table 4"}, "[7]": {"conditions": "thymic cells, ConA 1 μg/ml, 0.1 μg/kg i/p, Table 5"}, "[8]": {"conditions": "thymic cells, ConA 1 μg/ml, 0.1 μg/kg per os"}, "[9]": {"conditions": "thymic cells, ConA 1 μg/ml, 1.0 μg/kg Tablet, per os"}, "[10]": {"conditions": "thymic cells, ConA 1 μg/ml, 1.0 μg/kg i/p, Table 4"}, "[11]": {"conditions": "thymic cells, ConA 1 μg/ml, 1.0 μg/kg i/p, Table 5"}, "[12]": {"conditions": "thymic cells, ConA 1 μg/ml, 1.0 μg/kg per os"}, "[13]": {"conditions": "thymic cells, ConA 1 μg/ml, 10.0 μg/kg Tablet, per os"}, "[14]": {"conditions": "thymic cells, ConA 1 μg/ml, 10.0 μg/kg per os"}, "[15]": {"conditions": "thymic cells, ConA 1 μg/ml, 100.0 μg/kg per os"}}}
{"smiles": "N[C@H](CCC(=O)N[C@@H](Cc1c[nH]c2ccccc12)C(=O)O)C(=O)O", "note": "[SCV-07, γ-D-glutamyl-L-tryptophan]", "values": [{"measurement": "Production of IL-10 by splenocytes, % (% of control)", "setting": "[1]; 0.1 μg/kg i/p, OvA 50 μg/ml", "value": 152.1, "unit": "%"}, {"measurement": "Production of IL-10 by splenocytes", "setting": "[1]; 0.1 μg/kg i/p, OvA 100 μg/ml", "value": 1502.4, "unit": "pg/mL"}, {"measurement": "Production of IL-10 by splenocytes, % (% of control)", "setting": "[1]; 0.1 μg/kg i/p, OvA 100 μg/ml", "value": 191.4, "unit": "%"}, {"measurement": "Production of IL-10 by splenocytes", "setting": "[1]; 0.1 μg/kg per os, OvA 0 μg/ml", "value": 702.5, "unit": "pg/mL"}, {"measurement": "Production of IL-10 by splenocytes", "setting": "[1]; 0.1 μg/kg per os, OvA 10 μg/ml", "value": 958.9, "unit": "pg/mL"}, {"measurement": "Production of IL-10 by splenocytes", "setting": "[1]; 0.1 μg/kg per os, OvA 25 μg/ml", "value": 1478.2, "unit": "pg/mL"}, {"measurement": "Production of IL-10 by splenocytes", "setting": "[1]; 0.1 μg/kg per os, OvA 50 μg/ml", "value": 1739.2, "unit": "pg/mL"}, {"measurement": "Production of IL-10 by splenocytes", "setting": "[1]; 0.1 μg/kg per os, OvA 100 μg/ml", "value": 1895.4, "unit": "pg/mL"}, {"measurement": "Production of IL-10 by splenocytes", "setting": "[1]; 1.0 μg/kg i/p, OvA 0 μg/ml", "value": 457.4, "unit": "pg/mL"}, {"measurement": "Production of IL-10 by splenocytes", "setting": "[1]; 1.0 μg/kg i/p, OvA 10 μg/ml", "value": 813.4, "unit": "pg/mL"}, {"measurement": "Production of IL-10 by splenocytes, % (% of control)", "setting": "[1]; 1.0 μg/kg i/p, OvA 10 μg/ml", "value": 177.8, "unit": "%"}, {"measurement": "Production of IL-10 by splenocytes", "setting": "[1]; 1.0 μg/kg i/p, OvA 25 μg/ml", "value": 774.1, "unit": "pg/mL"}, {"measurement": "Production of IL-10 by splenocytes, % (% of control)", "setting": "[1]; 1.0 μg/kg i/p, OvA 25 μg/ml", "value": 169.2, "unit": "%"}, {"measurement": "Production of IL-10 by splenocytes", "setting": "[1]; 1.0 μg/kg i/p, OvA 50 μg/ml", "value": 852.4, "unit": "pg/mL"}, {"measurement": "Production of IL-10 by splenocytes, % (% of control)", "setting": "[1]; 1.0 μg/kg i/p, OvA 50 μg/ml", "value": 186.4, "unit": "%"}, {"measurement": "Production of IL-10 by splenocytes", "setting": "[1]; 1.0 μg/kg i/p, OvA 100 μg/ml", "value": 963.8, "unit": "pg/mL"}, {"measurement": "Production of IL-10 by splenocytes, % (% of control)", "setting": "[1]; 1.0 μg/kg i/p, OvA 100 μg/ml", "value": 210.7, "unit": "%"}, {"measurement": "Production of IL-10 by splenocytes", "setting": "[1]; 1.0 μg/kg per os, OvA 0 μg/ml", "value": 407.6, "unit": "pg/mL"}, {"measurement": "Production of IL-10 by splenocytes", "setting": "[1]; 1.0 μg/kg per os, OvA 10 μg/ml", "value": 953.1, "unit": "pg/mL"}, {"measurement": "Production of IL-10 by splenocytes", "setting": "[1]; 1.0 μg/kg per os, OvA 25 μg/ml", "value": 984.1, "unit": "pg/mL"}, {"measurement": "Production of IL-10 by splenocytes", "setting": "[1]; 1.0 μg/kg per os, OvA 50 μg/ml", "value": 1120.7, "unit": "pg/mL"}, {"measurement": "Production of IL-10 by splenocytes", "setting": "[1]; 1.0 μg/kg per os, OvA 100 μg/ml", "value": 1292.2, "unit": "pg/mL"}, {"measurement": "Production of IL-10 by splenocytes", "setting": "[1]; 10.0 μg/kg per os, OvA 0 μg/ml", "value": 627.3, "unit": "pg/mL"}, {"measurement": "Production of IL-10 by splenocytes", "setting": "[1]; 10.0 μg/kg per os, OvA 10 μg/ml", "value": 831.6, "unit": "pg/mL"}, {"measurement": "Production of IL-10 by splenocytes", "setting": "[1]; 10.0 μg/kg per os, OvA 25 μg/ml", "value": 1092.7, "unit": "pg/mL"}, {"measurement": "Production of IL-10 by splenocytes", "setting": "[1]; 10.0 μg/kg per os, OvA 50 μg/ml", "value": 1356.1, "unit": "pg/mL"}, {"measurement": "Production of IL-10 by splenocytes", "setting": "[1]; 10.0 μg/kg per os, OvA 100 μg/ml", "value": 1569.3, "unit": "pg/mL"}, {"measurement": "minimal dose of SCV-07 given as a crushed tablet which caused significant enhancement of proliferation", "setting": "[2]; crushed tablet per os, ConA 1 μg/ml", "value": 0.1, "unit": "µg/kg"}, {"measurement": "minimal SCV-07 dose which caused significant increase in proliferation of thymic cells", "setting": "[2]; oral administration, the same as for i/p", "value": 0.1, "unit": "µg/kg"}, {"measurement": "Spontaneous proliferation (cpm) M ± SD", "setting": "[2]; thymic cells, 0.01 μg/kg Tablet, per os", "value": "308 ± 104", "unit": "cpm"}, {"measurement": "Spontaneous proliferation (cpm) M ± SD", "setting": "[2]; thymic cells, 0.01 μg/kg per os", "value": "238 ± 64", "unit": "cpm"}, {"measurement": "Spontaneous proliferation (cpm) M ± SD", "setting": "[2]; thymic cells, 0.1 μg/kg Tablet, per os", "value": "395 ± 136", "unit": "cpm"}, {"measurement": "Spontaneous proliferation (cpm) M ± SD", "setting": "[2]; thymic cells, 0.1 μg/kg i/p, Table 4", "value": "268 ± 114", "unit": "cpm"}, {"measurement": "Spontaneous proliferation (cpm) M ± SD", "setting": "[2]; thymic cells, 0.1 μg/kg i/p, Table 5", "value": "251 ± 36", "unit": "cpm"}, {"measurement": "Spontaneous proliferation (cpm) M ± SD", "setting": "[2]; thymic cells, 0.1 μg/kg per os", "value": "250 ± 75", "unit": "cpm"}, {"measurement": "Spontaneous proliferation (cpm) M ± SD", "setting": "[2]; thymic cells, 1.0 μg/kg Tablet, per os", "value": "355 ± 62", "unit": "cpm"}, {"measurement": "Spontaneous proliferation (cpm) M ± SD", "setting": "[2]; thymic cells, 1.0 μg/kg i/p, Table 4", "value": "342 ± 83", "unit": "cpm"}, {"measurement": "Spontaneous proliferation (cpm) M ± SD", "setting": "[2]; thymic cells, 1.0 μg/kg i/p, Table 5", "value": "555 ± 20", "unit": "cpm"}, {"measurement": "Spontaneous proliferation (cpm) M ± SD", "setting": "[2]; thymic cells, 1.0 μg/kg per os", "value": "198 ± 44", "unit": "cpm"}, {"measurement": "Spontaneous proliferation (cpm) M ± SD", "setting": "[2]; thymic cells, 10.0 μg/kg Tablet, per os", "value": "317 ± 77", "unit": "cpm"}, {"measurement": "Spontaneous proliferation (cpm) M ± SD", "setting": "[2]; thymic cells, 10.0 μg/kg per os", "value": "246 ± 51", "unit": "cpm"}, {"measurement": "Spontaneous proliferation (cpm) M ± SD", "setting": "[2]; thymic cells, 100.0 μg/kg per os", "value": "272 ± 98", "unit": "cpm"}, {"measurement": "Induced proliferation (cpm) M ± SD", "setting": "[2]; [3]", "value": "3144 ± 582", "unit": "cpm"}, {"measurement": "Stimulation index", "setting": "[2]; [3]", "value": 10.2}, {"measurement": "Induced proliferation (cpm) M ± SD", "setting": "[2]; [4]", "value": "6698 ± 1465", "unit": "cpm"}, {"measurement": "Stimulation index", "setting": "[2]; [4]", "value": 28.1}, {"measurement": "Induced proliferation (cpm) M ± SD", "setting": "[2]; [5]", "value": "9900 ± 2021", "unit": "cpm"}, {"measurement": "Stimulation index", "setting": "[2]; [5]", "value": 25.1}, {"measurement": "Induced proliferation (cpm) M ± SD", "setting": "[2]; [6]", "value": "14261 ± 1400", "unit": "cpm"}, {"measurement": "Stimulation index", "setting": "[2]; [6]", "value": 53.3}, {"measurement": "Induced proliferation (cpm) M ± SD", "setting": "[2]; [7]", "value": "9897 ± 678", "unit": "cpm"}, {"measurement": "Stimulation index", "setting": "[2]; [7]", "value": 39.4}, {"measurement": "Induced proliferation (cpm) M ± SD", "setting": "[2]; [8]", "value": "9754 ± 1633", "unit": "cpm"}, {"measurement": "Stimulation index", "setting": "[2]; [8]", "value": 39.1}, {"measurement": "Induced proliferation (cpm) M ± SD", "setting": "[2]; [9]", "value": "10248 ± 1913", "unit": "cpm"}, {"measurement": "Stimulation index", "setting": "[2]; [9]", "value": 28.9}, {"measurement": "Induced proliferation (cpm) M ± SD", "setting": "[2]; [10]", "value": "20995 ± 6425", "unit": "cpm"}, {"measurement": "Stimulation index", "setting": "[2]; [10]", "value": 61.4}, {"measurement": "Induced proliferation (cpm) M ± SD", "setting": "[2]; [11]", "value": "33418 ± 3490", "unit": "cpm"}, {"measurement": "Stimulation index", "setting": "[2]; [11]", "value": 49.7}, {"measurement": "Induced proliferation (cpm) M ± SD", "setting": "[2]; [12]", "value": "20658 ± 5873", "unit": "cpm"}, {"measurement": "Stimulation index", "setting": "[2]; [12]", "value": 104.6}, {"measurement": "Induced proliferation (cpm) M ± SD", "setting": "[2]; [13]", "value": "7675 ± 1456", "unit": "cpm"}, {"measurement": "Stimulation index", "setting": "[2]; [13]", "value": 24.2}, {"measurement": "Induced proliferation (cpm) M ± SD", "setting": "[2]; [14]", "value": "13905 ± 2443", "unit": "cpm"}, {"measurement": "Stimulation index", "setting": "[2]; [14]", "value": 56.6}, {"measurement": "Induced proliferation (cpm) M ± SD", "setting": "[2]; [15]", "value": "27589 ± 1331", "unit": "cpm"}, {"measurement": "Stimulation index", "setting": "[2]; [15]", "value": 101.4}, {"measurement": "proliferation of cells stimulated by the optimal dose of ConA", "setting": "[2]; thymic cells, per os or i/p, data not shown", "value": "did not significantly change"}]}
